Assay: Dissociation constant with dimeric 16S rRNA RNA construct B

SMILES | Kd [nM]
NC[C@@H]1O[C@H](O[C@H]2[C@@H](O)[C@H](O[C@@H]3[C@@H](O)[C@H](N)C[C@H](N)[C@H]3O[C@H]3O[C@H](CN)[C@@H](O)[C@H](O)[C@H]3N)O[C@@H]2CO)[C@H](N)[C@@H](O)[C@@H]1O [FRAMYCETIN] | 350
NC[C@@H]1O[C@H](O[C@H]2[C@@H](O)[C@H](O[C@H]3[C@H](O)[C@@H](N)C[C@@H](N)[C@@H]3O[C@H]3O[C@H](CN)[C@@H](O)[C@H](O)[C@H]3N)O[C@@H]2CSCCOCCSCC(O)CN2C(=O)c3ccc4c5c(ccc(c35)C2=O)C(=O)N(CC(O)CSCCOCCSC[C@H]2O[C@H](O[C@@H]3[C@@H](O)[C@H](O[C@H]5O[C@H](CN)[C@@H](O)C[C@H]5N)[C@@H](N)C[C@H]3N)[C@H](O)[C@@H](N)[C@@H]2O)C4=O)[C@H](N)[C@@H](O)[C@@H]1O (some centres undefined) | 150
NCC1O[C@H](O[C@H]2[C@@H](O)[C@H](O[C@H]3[C@H](O)[C@@H](N)C[C@@H](N)[C@@H]3O[C@H]3O[C@H](CN)[C@@H](O)[C@H](O)[C@H]3N)O[C@@H]2CSCCOCCSSCCOCCSC[C@H]2O[C@H](O[C@@H]3[C@@H](O)[C@H](O[C@H]4O[C@H](CN)[C@@H](O)C[C@H]4N)[C@@H](N)C[C@H]3N)[C@H](O)[C@@H](N)[C@@H]2O)[C@H](N)[C@@H](O)[C@@H]1O (some centres undefined) | 290
NC[C@H]1O[C@H](O[C@H]2[C@H](O)[C@@H](O[C@H]3O[C@H](CO)[C@@H](O)[C@H](N)[C@H]3O)[C@H](N)C[C@@H]2N)[C@H](N)C[C@@H]1O [TOBRAMYCIN] | 1680
NC[C@H]1O[C@H](O[C@H]2[C@H](O)[C@@H](O[C@H]3O[C@H](CSCCOCCSSCCOCCSC[C@H]4O[C@H](O[C@@H]5[C@@H](O)[C@H](O[C@H]6O[C@H](CN)[C@@H](O)C[C@H]6N)[C@@H](N)C[C@H]5N)[C@H](O)[C@@H](N)[C@@H]4O)[C@@H](O)[C@H](N)[C@H]3O)[C@H](N)C[C@@H]2N)[C@H](N)C[C@@H]1O [Tobramycin-Tobramycin] | 1810
NC[C@H]1O[C@H](O[C@H]2[C@H](O)[C@@H](O[C@H]3O[C@H](CSCCOCCSCC(O)CN4C(=O)c5ccc6c7c(ccc(c57)C4=O)C(=O)N(CC(O)CSCCOCCSC[C@H]4O[C@H](O[C@@H]5[C@@H](O)[C@H](O[C@H]7O[C@H](CN)[C@@H](O)C[C@H]7N)[C@@H](N)C[C@H]5N)[C@H](O)[C@@H](N)[C@@H]4O)C6=O)[C@@H](O)[C@H](N)[C@H]3O)[C@H](N)C[C@@H]2N)[C@H](N)C[C@@H]1O (some centres undefined) | 1110
NCC1O[C@H](O[C@H]2[C@@H](O)[C@H](O[C@H]3[C@H](O)[C@@H](N)C[C@@H](N)[C@@H]3O[C@H]3O[C@H](CN)[C@@H](O)[C@H](O)[C@H]3N)O[C@@H]2CSCCOCCSSCCOCCSC[C@H]2O[C@@H](O[C@H]3[C@H](O)[C@@H](N)C[C@@H](N)[C@@H]3O[C@H]3O[C@H](CN)[C@@H](O)[C@H](O)[C@H]3N)[C@H](O)[C@@H]2O[C@@H]2OC(CN)[C@H](O)[C@@H](O)[C@@H]2N)[C@H](N)[C@@H](O)[C@@H]1O (some centres undefined) | 20
NC[C@@H]1O[C@H](O[C@@H]2[C@H](O[C@@H]3OC(CSCCOCCSCC(O)CN4C(=O)c5ccc6c7c(ccc(c57)C4=O)C(=O)N(CC(O)CSCCOCCSC[C@H]4O[C@@H](O[C@H]5[C@H](O)[C@@H](N)C[C@@H](N)[C@@H]5O[C@H]5O[C@H](CN)[C@@H](O)[C@H](O)[C@H]5N)[C@H](O)[C@@H]4O[C@H]4O[C@@H](CN)[C@@H](O)[C@H](O)[C@H]4N)C6=O)[C@@H](O[C@@H]4O[C@H](CN)[C@H](O)C(O)[C@H]4N)[C@H]3O)[C@@H](O)[C@@H](N)C[C@@H]2N)[C@@H](N)[C@@H](O)[C@@H]1O (some centres undefined) | 10
CN(C)C1=CC2Oc3cc(N(C)C)ccc3C(c3ccc(C(=O)NC[C@@H]4O[C@H](O[C@H]5[C@@H](O)[C@H](O[C@@H]6[C@H](O)[C@H](N)C[C@@H](N)[C@H]6O[C@H]6O[C@@H](CO)[C@@H](O)[C@H](O)[C@@H]6N)O[C@@H]5CO)[C@H](N)[C@H](O)[C@@H]4O)cc3C(=O)O)=C2C=C1 (some centres undefined) | 280

From ChEMBL document CHEMBL1133848, “Novel synthesis and RNA-binding properties of aminoglycoside dimers conjugated via a naphthalene diimide-based intercalator” (Bioorg Med Chem Lett, 2001)
